Data: patent publication US7700648B2, “Ester compound and its use” (Sumitomo Chemical Company Limited, priority 2004, dated 2010)

System: common mosquitoes (Culex pipiens pallens)
Test: Knock-down test on common mosquitoes by oil solution spray in a cubic chamber
Type: in vivo
Details: 0.7 ml of 0.025% oil solution sprayed in 70 cm cubic chamber; ten female Culex pipiens pallens; counted for 10 minutes
Text: A solution of 0.025 part of the present compound (1) dissolved with 10 parts of dichloromethane was mixed with 89.975 parts of deodorized kerosene to give a 0.025% oil solution.
Ten female common mosquitoes (Culex pipiens pallens) were left in a cubic chamber (70 cm at side). Seven-tenths (0.7) ml of the 0.025% oil solution of the present compound (1) was sprayed with a spray gun at a pressure of 8.8×10^4 Pa from a small window on the side of the chamber. Then, the number of the knocked-down insects was counted at times for 10 minutes. The time (KT50) for knocking down half of the tested insects was calculated from the result.
For the comparison, 5-benzyl-3-furylmethyl 1R-trans-2,2-dimethyl-3-((E)-2-cyano-3-ethoxy-3-oxo-1-propenyl)cyclopropanecarboxylate (hereinafter, referred to as the comparison compound) was also subjected to the above mentioned test. The test was done twice for one compound.

| Structure (SMILES) | KT50 (time for knocking down half of the tested insects) [min] |
| --- | --- |
| CCOC(=O)/C(C#N)=C/[C@@H]1[C@@H](C(=O)OCc2coc(Cc3ccccc3)c2)C1(C)C (relative stereo) [The comparison compound, 5-benzyl-3-furylmethyl 1R-trans-2,2-dimethyl-3-((E)-2-cyano-3-ethoxy-3-oxo-1-propenyl)cyclopropanecarboxylate] | 6.1 |
| COC(=O)/C(C#N)=C/C1C(C(=O)OCc2coc(Cc3ccccc3)c2)C1(C)C (stereo not drawn) [The present compound (1), 5-benzyl-3-furylmethyl 1R-trans-2,2-dimethyl-3-((E)-2-cyano-3-methoxy-3-oxo-1-propenyl)cyclopropan ecarboxylate] | 0.7 |
